pIC50: −log10 of the molar value.
Assays:
Human M3 receptor = Human M3 receptor (Homo sapiens, UniProt P20309); settings: read-out: M3 binding affinity
Human β2 adrenoceptor = Human β2 adrenoceptor (Homo sapiens, UniProt P07550); settings: read-out: B2 binding affinity
Chain of Human β2 adrenoceptor (P07550 whole entry): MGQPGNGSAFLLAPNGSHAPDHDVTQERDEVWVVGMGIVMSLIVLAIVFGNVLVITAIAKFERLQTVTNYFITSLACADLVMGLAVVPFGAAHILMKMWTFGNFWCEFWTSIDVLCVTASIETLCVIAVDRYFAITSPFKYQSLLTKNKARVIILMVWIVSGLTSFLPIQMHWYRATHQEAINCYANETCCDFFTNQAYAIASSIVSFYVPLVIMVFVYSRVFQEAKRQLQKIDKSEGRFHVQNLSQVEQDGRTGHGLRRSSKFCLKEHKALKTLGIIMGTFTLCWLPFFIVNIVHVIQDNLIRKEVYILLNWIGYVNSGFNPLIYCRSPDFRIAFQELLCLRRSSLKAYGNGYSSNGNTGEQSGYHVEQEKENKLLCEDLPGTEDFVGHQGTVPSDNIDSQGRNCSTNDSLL

Chain of Human M3 receptor (P20309 whole entry): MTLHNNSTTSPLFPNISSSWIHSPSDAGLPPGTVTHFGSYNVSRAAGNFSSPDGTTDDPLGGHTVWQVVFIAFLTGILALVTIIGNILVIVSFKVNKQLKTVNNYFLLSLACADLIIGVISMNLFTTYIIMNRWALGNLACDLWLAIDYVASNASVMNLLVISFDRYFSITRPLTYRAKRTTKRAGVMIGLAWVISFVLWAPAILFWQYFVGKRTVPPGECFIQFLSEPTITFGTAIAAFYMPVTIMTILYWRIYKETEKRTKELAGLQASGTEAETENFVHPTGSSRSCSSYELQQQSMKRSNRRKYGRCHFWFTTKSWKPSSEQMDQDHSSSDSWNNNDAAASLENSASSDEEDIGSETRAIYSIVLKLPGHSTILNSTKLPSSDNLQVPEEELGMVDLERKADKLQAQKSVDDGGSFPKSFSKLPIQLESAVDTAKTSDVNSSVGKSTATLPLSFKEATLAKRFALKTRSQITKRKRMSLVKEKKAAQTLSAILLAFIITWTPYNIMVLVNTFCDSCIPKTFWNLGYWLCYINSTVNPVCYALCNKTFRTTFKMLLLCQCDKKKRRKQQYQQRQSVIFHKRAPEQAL

Row | SMILES | pIC50 (Human M3 receptor) | pIC50 (Human β2 adrenoceptor)
1 | O=C(OCC1CCN(Cc2ccccc2)CC1)[C@@](O)(c1ccccc1)c1cccc(OCCCCCCNCC(O)c2ccc(O)c3[nH]c(=O)ccc23)c1 (stereo in doubt) [Compound 27, (R)-(1-benzylpiperidin-4-yl)methyl 2-hydroxy-2-(3-((6-(((R)-2-hydroxy-2-(8-hydroxy-2-oxo-1,2-dihydroquinolin-5-yl)ethyl)amino)hexyl)oxy)phenyl)-2-phenylacetate] | < 8.52 | 8.52 to 9.52
2 | O=C(OCC1CCN(Cc2ccccc2)CC1)[C@](O)(c1ccccc1)c1cccc(OCCCCCCNCC(O)c2ccc(O)c3[nH]c(=O)ccc23)c1 (stereo in doubt) [Compound 29, (S)-(1-benzylpiperidin-4-yl)methyl 2-hydroxy-2-(3-((6-(((R)-2-hydroxy-2-(8-hydroxy-2-oxo-1,2-dihydroquinolin-5-yl)ethyl)amino)hexyl)oxy)phenyl)-2-phenylacetate] | > 9.52 | > 9.52
3 | O=C(OCC1CCN(Cc2ccccc2)CC1)[C@](O)(c1ccccc1)c1cccc(OCCCCCCCCNCC(O)c2ccc(O)c3[nH]c(=O)ccc23)c1 (stereo in doubt) [Compound 30, (S)-(1-benzylpiperidin-4-yl)methyl 2-hydroxy-2-(3-((8-(((R)-2-hydroxy-2-(8-hydroxy-2-oxo-1,2-dihydroquinolin-5-yl)ethyl)amino)octyl)oxy)phenyl)-2-phenylacetate] | 8.52 to 9.52 | 8.52 to 9.52
4 | O=C(NCCc1cccc(C(O)(C(=O)OCC2CCN(Cc3ccccc3)CC2)c2ccccc2)c1)c1ccc(CNCC(O)c2ccc(O)c3[nH]c(=O)ccc23)cc1 (stereo in doubt) [Compound 39, (1-benzylpiperidin-4-yl)methyl 2-hydroxy-2-(3-(2-(4-((((R)-2-hydroxy-2-(8-hydroxy-2-oxo-1,2-dihydroquinolin-5-yl)ethyl)amino)methyl)benzamido)ethyl)phenyl)-2-phenylacetate] | 8.52 to 9.52 | > 9.52
5 | O=C(OCC1CCN(Cc2ccccc2)CC1)C(O)(c1ccccc1)c1cccc(OCCCCCNC[C@H](O)c2ccc(O)c3[nH]c(=O)ccc23)c1 (stereo partly drawn) [Compound 1, (1-Benzylpiperidin-4-yl)methyl 2-hydroxy-2-(3-((5-(((R)-2-hydroxy-2-(8-hydroxy-2-oxo-1,2-dihydroquinolin-5-yl)ethyl)amino)pentyl)oxy)phenyl)-2-phenylacetate] | 8.52 to 9.52 | > 9.52
6 | CN(C)CCOC(=O)[C@](O)(c1ccccc1)c1cccc(OCCCCCNC[C@H](O)c2ccc(O)c3[nH]c(=O)ccc23)c1 [Compound 17, (S)-2-(dimethylamino)ethyl 2-hydroxy-2-(3-((5-(((R)-2-hydroxy-2-(8-hydroxy-2-oxo-1,2-dihydroquinolin-5-yl)ethyl)amino)pentyl)oxy)phenyl)-2-phenylacetate] | – | 8.52 to 9.52
7 | CN(C)CCOC(=O)[C@@](O)(c1ccccc1)c1cccc(OCCCCCNC[C@H](O)c2ccc(O)c3[nH]c(=O)ccc23)c1 [Compound 18, (R)-2-(dimethylamino)ethyl 2-hydroxy-2-(3-((5-(((R)-2-hydroxy-2-(8-hydroxy-2-oxo-1,2-dihydroquinolin-5-yl)ethyl)amino)pentyl)oxy)phenyl)-2-phenylacetate] | – | > 9.52
8 | CN1CC[C@@H](OC(=O)[C@](O)(c2ccccc2)c2cccc(OCCCCCNC[C@H](O)c3ccc(O)c4[nH]c(=O)ccc34)c2)C1 [Compound 19] | – | > 9.52
9 | CN1CC[C@@H](OC(=O)[C@@](O)(c2ccccc2)c2cccc(OCCCCCNC[C@H](O)c3ccc(O)c4[nH]c(=O)ccc34)c2)C1 [Compound 20, (R)-(R)-1-methylpyrrolidin-3-yl 2-hydroxy-2-(3-((5-(((R)-2-hydroxy-2-(8-hydroxy-2-oxo-1,2-dihydroquinolin-5-yl)ethyl)amino)pentyl)oxy)phenyl)-2-phenylacetate] | – | > 9.52
10 | CN1CCC(OC(=O)[C@](O)(c2ccccc2)c2cccc(OCCCCCNC[C@H](O)c3ccc(O)c4[nH]c(=O)ccc34)c2)CC1 [Compound 21, (S)-1-methylpiperidin-4-yl 2-hydroxy-2-(3-((5-(((R)-2-hydroxy-2-(8-hydroxy-2-oxo-1,2-dihydroquinolin-5-yl)ethyl)amino)pentyl)oxy)phenyl)-2-phenylacetate] | – | > 9.52
11 | CN1CCC(OC(=O)[C@@](O)(c2ccccc2)c2cccc(OCCCCCNC[C@H](O)c3ccc(O)c4[nH]c(=O)ccc34)c2)CC1 [Compound 22, (R)-1-methylpiperidin-4-yl 2-hydroxy-2-(3-((5-(((R)-2-hydroxy-2-(8-hydroxy-2-oxo-1,2-dihydroquinolin-5-yl)ethyl)amino)pentyl)oxy)phenyl)-2-phenylacetate] | – | > 9.52
12 | CN1CCC[C@@H](OC(=O)[C@](O)(c2ccccc2)c2cccc(OCCCCCNC[C@H](O)c3ccc(O)c4[nH]c(=O)ccc34)c2)C1 [Compound 25] | – | > 9.52
13 | CN1CC(OC(=O)[C@](O)(c2ccccc2)c2cccc(OCCCCCNC[C@H](O)c3ccc(O)c4[nH]c(=O)ccc34)c2)C1 [Compound 26, (S)-1-methylazetidin-3-yl 2-hydroxy-2-(3-((5-(((R)-2-hydroxy-2-(8-hydroxy-2-oxo-1,2-dihydroquinolin-5-yl)ethyl)amino)pentyl)oxy)phenyl)-2-phenylacetate] | – | > 9.52
14 | CN1CC[C@@H](OC(=O)C(O)(c2ccccc2)c2cccc(C(=O)NCCCCNC[C@H](O)c3ccc(O)c4[nH]c(=O)ccc34)c2)C1 (stereo partly drawn) [Compound 49, (R)-1-methylpyrrolidin-3-yl 2-hydroxy-2-(3-((4-(((R)-2-hydroxy-2-(8-hydroxy-2-oxo-1,2-dihydroquinolin-5-yl)ethyl)amino)butyl)carbamoyl)phenyl)-2-phenylacetate diformate] | – | > 9.52
15 | O=C(NCCCOc1cccc([C@](O)(C(=O)OC2CCN(Cc3ccccc3)CC2)c2ccccc2)c1)c1ccc(CNC[C@H](O)c2ccc(O)c3[nH]c(=O)ccc23)cc1 [Compound 158, 1-Benzylpiperidin-4-yl (S)-2-hydroxy-2-(3-(3-(4-((((R)-2-hydroxy-2-(8-hydroxy-2-oxo-1,2-dihydroquinolin-5-yl)ethyl)amino)methyl)benzamido)propoxy)phenyl)-2-phenylacetate] | – | > 9.52
16 | O=C(NCCCOc1cccc([C@](O)(C(=O)OC[C@@H]2CCN(Cc3ccccc3)C2)c2ccccc2)c1)c1ccc(CNC[C@H](O)c2ccc(O)c3[nH]c(=O)ccc23)cc1 [Compound 159, ((R)-1-benzylpyrrolidin-3-yl)methyl (S)-2-hydroxy-2-(3-(3-(4-((((R)-2-hydroxy-2-(8-hydroxy-2-oxo-1,2-dihydroquinolin-5-yl)ethyl)amino)methyl)benzamido)propoxy)phenyl)-2-phenylacetate] | – | > 9.52
17 | O=C(NCCCOc1cccc([C@](O)(C(=O)OC[C@H]2CCN(Cc3ccccc3)C2)c2ccccc2)c1)c1ccc(CNC[C@H](O)c2ccc(O)c3[nH]c(=O)ccc23)cc1 [Compound 160, ((S)-1-benzylpyrrolidin-3-yl)methyl (S)-2-hydroxy-2-(3-(3-(4-((((R)-2-hydroxy-2-(8-hydroxy-2-oxo-1,2-dihydroquinolin-5-yl)ethyl)amino)methyl)benzamido)propoxy)phenyl)-2-phenylacetate] | – | > 9.52
18 | O=C(NCCCOc1cccc([C@](O)(C(=O)O[C@@H]2CCN(Cc3ccccc3)C2)c2ccccc2)c1)c1ccc(CNC[C@H](O)c2ccc(O)c3[nH]c(=O)ccc23)cc1 [Compound 163, (R)-1-benzylpyrrolidin-3-yl (S)-2-hydroxy-2-(3-(3-(4-((((R)-2-hydroxy-2-(8-hydroxy-2-oxo-1,2-dihydroquinolin-5-yl)ethyl)amino)methyl)benzamido)propoxy)phenyl)-2-phenylacetate] | – | > 9.52
19 | O=C(NCCCOc1cccc([C@](O)(C(=O)O[C@H]2CCN(Cc3ccccc3)C2)c2ccccc2)c1)c1ccc(CNC[C@H](O)c2ccc(O)c3[nH]c(=O)ccc23)cc1 [Compound 164, (S)-1-benzylpyrrolidin-3-yl (S)-2-hydroxy-2-(3-(3-(4-((((R)-2-hydroxy-2-(8-hydroxy-2-oxo-1,2-dihydroquinolin-5-yl)ethyl)amino)methyl)benzamido)propoxy)phenyl)-2-phenylacetate] | – | 8.52 to 9.52
20 | O=C(NCCCOc1cccc([C@](O)(C(=O)OC2CN(Cc3ccccc3)C2)c2ccccc2)c1)c1ccc(CNC[C@H](O)c2ccc(O)c3[nH]c(=O)ccc23)cc1 [Compound 165, 1-benzylazetidin-3-yl (S)-2-hydroxy-2-(3-(3-(4-((((R)-2-hydroxy-2-(8-hydroxy-2-oxo-1,2-dihydroquinolin-5-yl)ethyl)amino)methyl)benzamido)propoxy)phenyl)-2-phenylacetate] | – | > 9.52
21 | O=C(NCc1ccc(COc2cccc([C@](O)(C(=O)OC3CCN(Cc4ccccc4)CC3)c3ccccc3)c2)cc1)Nc1ccc(CNC[C@H](O)c2ccc(O)c3[nH]c(=O)ccc23)cc1 [Compound 166, 1-Benzylpiperidin-4-yl (S)-2-hydroxy-2-(3-((4-((3-(4-((((R)-2-hydroxy-2-(8-hydroxy-2-oxo-1,2-dihydroquinolin-5-yl)ethyl)amino)methyl)phenyl)ureido)-methyl)benzyl)oxy)phenyl)-2-phenylacetate] | – | 8.52 to 9.52
22 | COc1cc(NC(=O)NCc2ccc(COc3cccc([C@](O)(C(=O)OC4CCN(Cc5ccccc5)CC4)c4ccccc4)c3)cc2)ccc1CNC[C@H](O)c1ccc(O)c2[nH]c(=O)ccc12 [Compound 167, 1-benzylpiperidin-4-yl (S)-2-hydroxy-2-(3-((4-((3-(4-((((R)-2-hydroxy-2-(8-hydroxy-2-oxo-1,2-dihydroquinolin-5-yl)ethyl)amino)methyl)-3-methoxyphenyl)ureido)methyl)benzyl)oxy)phenyl)-2-phenylacetate] | – | 8.52 to 9.52
23 | COc1cc(CNC[C@H](O)c2ccc(O)c3[nH]c(=O)ccc23)ccc1NC(=O)NCc1ccc(COc2cccc([C@](O)(C(=O)OC3CCN(Cc4ccccc4)CC3)c3ccccc3)c2)cc1 [Compound 168, 1-benzylpiperidin-4-yl (S)-2-hydroxy-2-(3-((4-((3-(4-((((R)-2-hydroxy-2-(8-hydroxy-2-oxo-1,2-dihydroquinolin-5-yl)ethyl)amino)methyl)-2-methoxyphenyl)ureido)methyl)benzyl)oxy)phenyl)-2-phenylacetate] | – | 8.52 to 9.52

Reference: patent US9579314B2 (priority 2015, dated 2017)
